Assay results taken from patent publication US7320785B2, “Compositions and methods for modulation of DARPP-32 phosphorylation” (The Rockefeller University, priority 2001, dated 2008).
Like-named read-outs stand apart in the source and are kept apart here. Marks after values point to notes of the source that are not given here.

Columns and labels:
[1] = test system: DARPP-32; assay: DARPP-32 phosphorylation in mouse brain slices, immunoblotting with phosphorylation state-specific antibodies; conditions: for EC50 / activity at 100 µM: Mus musculus
[2] = test system: DARPP-32; assay: Thr34-DARPP-32 phosphorylation in striatal slices from unilaterally 6-OHDA-lesioned rats; type: cell-based, rat
Procedure: Further experiments were conducted that provide evidence that activation of a serotonergic intracellular signaling pathway and of DARPP-32 has applicability in the treatment of Parkinson's disease. In these experiment, rats were unilaterally (i.e. in one hemisphere) injected with 6-OHDA (6-hydroxydopamine; a dopaminergic neurotoxin) according to standard methods. The 6-OHDA is selectively taken up by dopaminergic neurons and kills the neurons. Such 6-OHDA-lesioned animals are considered an animal model of Parkinson's disease. The 6-OHDA-lesioned animals were sacrificed, striatal slices were prepared, as described hereinabove, from the non-lesioned (i.e., “normal”) and the 6-OHDA-lesioned (i.e., “dopamine-depleted”) hemispheres, and used for striatal slice experiments according to the methods described hereinabove. 5-HT or saline (control) was administered according to the methods described hereinabove. […] The interpretation of these experiments is that 5-HT activates DARPP-32 phosphorylation via a mechanism that is largely independent of enhanced dopaminergic neurotransmission. Agents that enhance serotonergic neurotransmission, and that are stimulatory, can thus exert anti-Parkinsonian effects independent of dopamine, and can be used in the treatment of Parkinson's disease.

[3] = test system: GluR1 subunit of the AMPA receptor; assay: Phosphorylation of the GluR1 subunit of the AMPA receptor in slices from WT and DARPP-32 KO mice; type: cell-based, mouse
Procedure: In order to evaluate the involvement of DARPP-32 in the activity of serotonin, mice that lack DARPP-32 (DARPP-32 knockout (KO) mice) were used. In one set of experiments, striatal slices were prepared from normal mice (DARPP-32 wild-type) and DARPP-32 knockout mice and incubated with serotonin for 5 minutes. Experiments were then carried out to determine the levels of phospho-Ser845 of the GluR1 subunit of the AMPA (AMPA, α-amino-3-hydroxy-5-methyl-4-isoxazolepropionic acid) receptor.

[4] = test system: WT and DARPP-32 KO mice; assay: Locomotor activity measurements in activity monitors; type: in vivo, mouse
Procedure: Locomotor activity of WT and DARPP-32 KO mice was measured in activity monitors (43×44×45 cm) equipped with both horizontal and vertical sensors (Opto-Varimex, Columbus Instruments, Columbus, Ohio). Mice were acclimated to the boxes for 1 h, […] before the day of the experiment. The day of the experiment, mice were placed in the boxes for 20 min (habituation period) before drug administration. […] Locomotor activity parameters (distance traveled and stereotypic movements) were quantified by using the AutoTrack System (Columbus Instruments).

[5] = test system: WT and DARPP-32 KO mice; assay: Tail-suspension test for antidepressant efficacy; type: in vivo, mouse; conditions: fluoxetine 5 or 10 mg/kg i.p. 30 min before the trial
[6] = test system: DARPP-32; assay: DARPP-32 phosphorylation in vivo in mice after i.p. injection, immunoblotting; design: species or system mouse; conditions: for phospho-Thr34 DARPP-32 / phospho-Thr75 DARPP-32: prefrontal cortex
[7] = test system: inhibitor-1; assay: Total inhibitor-1 protein levels after chronic treatment with fluoxetine; type: in vivo, mouse; conditions: chronic fluoxetine 10 mg/kg i.p.
Procedure: (§1) In all experiments, hippocampi, prefrontal cortices, and striata were rapidly dissected out and stored at −80° C. until assayed.

[8] = test system: inhibitor-1 mRNA; assay: Inhibitor-1 mRNA levels by in situ hybridization after chronic fluoxetine; type: in vivo, mouse; conditions: hippocampus, prefrontal cortex, striatum; fluoxetine 10 mg/kg i.p. once daily for 19 days
Procedure: (§2) Brains were rapidly dissected out and frozen at −80° C. Cryostat sections (12-μm) were prepared and hybridized with [α-^35S]UTP-labeled riboprobes prepared by in vitro transcription from cDNA clones corresponding to full-length clones of DARPP-32 or inhibitor-1 as described (21). After hybridization, the sections were exposed to Biomax MR film (Kodak) for 2 14 days and analyzed with a Microcomputer Imaging Device system (M4, Imaging Research, St. Catherine's, ON, Canada).

[9] = test system: DARPP-32 mRNA; assay: DARPP-32 mRNA levels by in situ hybridization after chronic fluoxetine; type: in vivo, mouse; conditions: fluoxetine 10 mg/kg i.p. once daily for 19 days
Procedure: as §2

[10] = test system: DARPP-32; assay: Total DARPP-32 protein levels after chronic treatment with fluoxetine; type: in vivo, mouse; conditions: chronic fluoxetine 10 mg/kg i.p., compared with chronic saline
Procedure: as §1

[11] = forced-swim test and tail suspension test; cited from earlier work
[12] = test system: c-fos mRNA; assay: c-fos mRNA expression by in situ hybridization in WT and DARPP-32 KO mice; type: in vivo, mouse; conditions: 20 min postinjection
Procedure: Twenty minutes after the injections, the animals were killed by decapitation and their brains frozen at −80° C. Coronal sections were then made and processed for in situ hybridization experiments with a probe against c-fos mRNA. The expression of c-fos mRNA is widely used as a marker for the biochemical activity of neurons. Manipulations of the serotonergic system, by PCA (4 mg/kg) and 5-HTP (50 mg/kg+carbidopa 50 mg/kg), increased c-fos mRNA expression in several brain regions, including prefrontal cortex and striatum in DARPP-32 wild-type mice.

[13] = test system: depressed patients; conditions: several clinical trials; cited from earlier work
[14] = test system: DARPP-32; conditions: chronic administration in rats; cited from earlier work
[15] = nucleus accumbens slices, serotonin 100 μM, 2 min, n=12
[16] = slices from hippocampus, frontal cortex, striatum, WT mice, serotonin 100 μM, 10 min
[17] = striatal slices, serotonin for 5 minutes
[18] = Hippocampus, 5 mg/kg i.p., 15 min
[19] = Hippocampus, 10 mg/kg i.p., 15 min
[20] = Hippocampus, 20 mg/kg i.p., 15 min
[21] = Striatum, 10 mg/kg i.p., 15 min
[22] = Striatum, 20 mg/kg i.p., 15 min
[23] = PCA 4 mg/kg i.p., 15 min, n=5 mice
[24] = striatum, 4 mg/kg i.p., 15 min after injection
[25] = 5-HTP 50 mg/kg + carbidopa 50 mg/kg

SMILES: NCCc1c[nH]c2ccc(O)cc12 [Serotonin]
- EC50 ([1]; 2 min, read-out: EC50 for effect on DARPP-32 phosphorylation at Ser137): 37.6 µM
- EC50 ([1]; 2 min, read-out: EC50 for effect on DARPP-32 phosphorylation at Thr34): 13.5 µM
- activity at 100 µM ([1]; 2 min, read-out: Percent Phospho-Ser137): 141%
- activity at 100 µM ([1]; 2 min, read-out: Percent Phospho-Thr34): 342%
- EC50 ([1]; 10 min, read-out: EC50 for effect on DARPP-32 phosphorylation at Thr75): 29.6 µM
- activity at 100 µM ([1]; 10 min, read-out: Percent Phospho-Thr75): 76%
- phosphorylation at Ser137 [1, 15]: 143±7%
- phosphorylation at Thr34 [1, 15]: 307±25%
- phosphorylation at Thr75 ([1]; nucleus accumbens slices, serotonin, 10 min, n=12): 75±6%
- phospho-Thr34 DARPP-32 ([1]; prefrontal cortex slices, 2 min of incubation, n=6): 185±15%
- phospho-Thr75 DARPP-32 ([1]; prefrontal cortex slices, 10 min of incubation, n=6): 85±3%
- Percent Phospho-Thr34 ([2]; 6-OHDA lesioned hemisphere): 369(67.2)* Percent
- Percent Phospho-Thr34 ([2]; Intact hemisphere): 306(50.7) Percent
- increased phosphorylation at Ser-845 GluR1, DARPP-32 KO versus WT ([3]; slices from DARPP-32 KO mice, serotonin 100 μM): significantly reduced
- phosphorylation at Ser-831 GluR1 [3, 16]: increased
- phosphorylation at Ser-845 GluR1 [3, 16]: increased
- Ser845-GluR1 Levels, DARPP-32 Knockout [3, 17]: 111(14.9)# percentage of control
- Ser845-GluR1 Levels, DARPP-32 Wild-type [3, 17]: 199(22.7)* percentage of control

SMILES: CNCCC(Oc1ccc(C(F)(F)F)cc1)c1ccccc1 (centres unmarked) [Fluoxetine]
- locomotion ([4]; fluoxetine at the doses examined (5 or 10 mg/kg)): not significantly affected
- effect on immobility in the tail-suspension test ([5]; DARPP-32 KO mice): strongly attenuated
- immobility in the tail-suspension test ([5]; WT mice, 5 min trial): decreased immobility
- effect of fluoxetine alone on DARPP-32 phosphorylation ([1]; slices from hippocampus, prefrontal cortex, striatum, fluoxetine 10 M printed): no effect
- Percent Phospho-Thr34 ([6]; Cortex, 5 mg/kg i.p., 15 min): 144(7.4)* Percent
- Percent Phospho-Thr75 ([6]; Cortex, 5 mg/kg i.p., 15 min): 86(7.0)* Percent
- Percent Phospho-Thr34 ([6]; Cortex, 10 mg/kg i.p., 15 min): 140(4.7)* Percent
- Percent Phospho-Thr75 ([6]; Cortex, 10 mg/kg i.p., 15 min): 85(4.2)* Percent
- Percent Phospho-Thr75 ([6]; Cortex, 20 mg/kg i.p., 15 min): 82(7.3)* Percent
- Percent Phospho-Thr34 [6, 18]: 150(3.8)* Percent
- Percent Phospho-Thr75 [6, 18]: 84(6.4)* Percent
- Percent Phospho-Thr34 [6, 19]: 142(6.2)* Percent
- Percent Phospho-Thr75 [6, 19]: 87(3.0)* Percent
- Percent Phospho-Thr34 [6, 20]: 141(11.6)* Percent
- Percent Phospho-Thr75 [6, 20]: 88(3.0)* Percent
- Percent Phospho-Ser137 ([6]; Striatum, 5 mg/kg i.p., 15 min): 120(8.7) Percent
- Percent Phospho-Thr34 ([6]; Striatum, 5 mg/kg i.p., 15 min): 123(5.0)* Percent
- Percent Phospho-Thr75 ([6]; Striatum, 5 mg/kg i.p., 15 min): 95(3.1) Percent
- Percent Phospho-Ser102 [6, 21]: 108(7.5) Percent
- Percent Phospho-Thr34 [6, 21]: 155.2(12.9)* Percent
- Percent Phospho-Thr75 [6, 21]: 84.6(8.9)* Percent
- Percent Phospho-Thr34 [6, 22]: 141(7.6)* Percent
- Percent Phospho-Thr75 [6, 22]: 92(2.1)* Percent
- fraction of DARPP-32 phosphorylated at Thr-34, Thr-75, or Ser-137 ([6]; chronic fluoxetine 10 mg/kg 19 days, challenged with saline, versus chronic saline/saline, normalized to total DARPP-32): no differences
- ability of a challenge to increase phosphorylation at Ser-137 ([6]; striatum, chronic fluoxetine 10 mg/kg 19 days, challenge 10 mg/kg): abolished
- total inhibitor-1 protein ([7]; hippocampus): 98%
- total inhibitor-1 protein ([7]; prefrontal cortex): 102%
- total inhibitor-1 protein ([7]; striatum): 97%
- inhibitor-1 mRNA expression [8]: no effects
- DARPP-32 mRNA expression ([9]; hippocampus and frontal cortex): increased
- DARPP-32 mRNA expression ([9]; striatum): not in striatum
- total DARPP-32 protein ([10]; hippocampus): 121%
- total DARPP-32 protein ([10]; prefrontal cortex): 123%
- total DARPP-32 protein ([10]; striatum): 102%

SMILES: CC(CNS(=O)(=O)C(C)C)c1ccc(-c2ccsc2)cc1 (centres unmarked) [LY392098]
- antidepressant-like actions [11]: robust antidepressant-like actions

SMILES: CC(N)Cc1ccc(Cl)cc1 (centres unmarked) [PCA, para-chloroamphetamine]
- c-fos mRNA Levels in Striatum, DARPP-32 Knockout ([12]; PCA 4 mg/kg i.p.): 0.084(0.010)#*
- c-fos mRNA Levels in Striatum, DARPP-32 Wild-type ([12]; PCA 4 mg/kg i.p.): 0.181(0.021)*
- locomotor activity and stereotypic behavior ([4]; DARPP-32 KO mice, PCA 4 mg/kg i.p.): abolished
- locomotor activity and stereotypic behavior ([4]; WT mice, PCA 4 mg/kg i.p., 50 min): robust increase
- phospho-Thr34 DARPP-32 [6, 23]: 147±4.8%
- phospho-Thr75 DARPP-32 [6, 23]: 79±3.8%
- Percent Phospho-Ser137 [6, 24]: 128(7.1)* Percent
- Percent Phospho-Thr34 [6, 24]: 171(9.1)* Percent
- Percent Phospho-Thr75 [6, 24]: 80.1(3.4)* Percent

SMILES: COc1ccc(C2CNC(=O)C2)cc1OC1CCCC1 (centres unmarked) [rolipram]
- anti-depressant efficacy [13]: has anti-depressant efficacy

SMILES: CC(CNS(=O)(=O)C(C)C)c1ccc(-c2ccc(C#N)cc2)cc1 (centres unmarked) [LY404187]
- antidepressant-like actions [11]: robust antidepressant-like actions

SMILES: CN(C)CCCN1c2ccccc2CCc2ccccc21 [imipramine]
- frontal cortex levels of DARPP-32 immunoreactivity [14]: significant increases

SMILES: N[C@@H](Cc1c[nH]c2ccc(O)cc12)C(=O)O [5-HTP, 5-hydroxytryptophan]
- c-fos mRNA Levels in Striatum, DARPP-32 Knockout [12, 25]: 0.092(0.009)#*
- c-fos mRNA Levels in Striatum, DARPP-32 Wild-type [12, 25]: 0.195(0.017)*
- locomotor activity and stereotypic behavior ([4]; DARPP-32 KO mice, 5-HTP 50 mg/kg i.p. 30 min after carbidopa 50 mg/kg): abolished
- locomotor activity and stereotypic behavior ([4]; WT mice, 5-HTP 50 mg/kg i.p. 30 min after carbidopa 50 mg/kg): robust increase
- phospho-Thr75 DARPP-32 ([6]; 5-HTP 50 mg/kg i.p. after carbidopa, 15 min, n=5): 74±8.0%
- phospho-Thr34 DARPP-32 ([6]; 5-HTP 50 mg/kg i.p. after carbidopa, 15 min, n=5 mice): 144±8.3%
